Source: paper PMC9395446, “First-in-human phase 1/1b study to evaluate sitravatinib in patients with advanced solid tumors” (Investigational New Drugs, 2022)
Values after ≈ are worked out from the molar mass of the structure shown.

Tests used:
[1] = test system: target RTKs, including AXL, MERTK, VEGF-R, KIT and MET; details: read-out: Biochemical half-maximal inhibitory concentration, range; against target RTKs; cited from earlier work
[2] = test system: VEGF-R2; experiment: Pharmacodynamic plasma markers VEGF-A and s-VEGF-R2, exposure-response analysis; format: in vivo, human
Procedure: PK samples were collected after a single dose during the PK lead-in period and following multiple oral doses during the study. Plasma PK samples were assayed for quantification of sitravatinib. The lower limit of quantification was 0.05 ng/mL. PK parameters were determined using a noncompartmental analysis approach including maximum (peak) concentration (Cmax), time to reach Cmax following drug administration (tmax), area under the plasma concentration–time curves (AUCs), apparent total clearance of the drug from plasma after oral administration, apparent volume of distribution during the terminal phase after administration and terminal elimination half-life (t1/2). PD effects were examined by analyzing VEGF-A ligand and soluble (s)-VEGF-R2 levels in patients’ plasma samples collected before and after sitravatinib administration.

**Q.** Which results are given for `COCCNCc1ccc(-c2cc3nccc(Oc4ccc(NC(=O)C5(C(=O)Nc6ccc(F)cc6)CC5)cc4F)c3s2)nc1` [sitravatinib, Sitravatinib]?
**A.** IC50 [1]: 1.5 to 20 nM; EC50 ([2]; Homo sapiens, plasma PD markers, drug target VEGF-R2, read-out: EC50 from exposure-response analysis): 0.0309 µg/mL (≈ 0.0491 µM); VEGF-A percent change from baseline (increase) ([2]; plasma, after sitravatinib administration): 200%
